Values joined by “and” are separate entries in the source; they are usually repeats but may differ in a detail not shown here. Equal entries are not always repeated.
Tests used:
[1] = system: HEK293 c18 cells; assay: MTS viability assay with nnAA titration in cells transfected with pylRS and tRNA; conditions: ALOC 5 mM to 0.08 mM, 5 days
Procedure: Finally, to determine whether amber suppression led to cytostatic effects, 1000 HEK293 c18 cells plates in a 96 well plate and transiently transfected with pCEP4-pylRS and pOriP-9×tRNA constructs. Cells were grown in DMEM-C medium containing a titration of nnAA (ALOC) starting with 5 mM to 0.08 mM. Cell viability was assayed at the time of the transfection, and after 5 days growth using an MTS colorimetric assays (FIG. 4D).

[2] = molecular target: T1, pylRS/tRNA pair (Methanosarcina mazei, UniProt Q8PWY1); assay: GFP assay: translational testing of pyrrolysine analogs as nnAAs; assay type: cell-based; conditions: Formula V analogs, nnAA 2 mM, 2-3 days; for MFI: geometric mean
T1 construct: expressed in transfected cells; host or cells: HEK293 clone 3H7
T1 sequence (Q8PWY1 whole entry): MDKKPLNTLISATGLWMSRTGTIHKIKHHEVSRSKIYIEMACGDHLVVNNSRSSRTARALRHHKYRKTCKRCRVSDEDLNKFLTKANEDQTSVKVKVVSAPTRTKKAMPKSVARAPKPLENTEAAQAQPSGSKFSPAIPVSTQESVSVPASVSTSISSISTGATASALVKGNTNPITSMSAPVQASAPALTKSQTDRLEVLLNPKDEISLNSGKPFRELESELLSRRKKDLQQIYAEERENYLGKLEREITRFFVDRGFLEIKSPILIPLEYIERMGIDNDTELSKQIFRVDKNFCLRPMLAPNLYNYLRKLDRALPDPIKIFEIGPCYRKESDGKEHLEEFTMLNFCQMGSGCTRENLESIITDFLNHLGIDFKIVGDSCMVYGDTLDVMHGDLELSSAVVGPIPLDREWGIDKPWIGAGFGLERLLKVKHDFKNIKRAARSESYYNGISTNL
Text: An in vitro cell based assay was developed to assess the compatibility of the pylRS/tRNA pair and the pyrrolysine analogs of the present invention (nnAAs) by and the efficiency of nnAAs integration into a target protein. For this, HEK293 cells stably expressing pylRS (3H7) were transiently transfected with plasmids for the expression of tRNApyl and a reporter construct encoding GFPY40 (containing amber codon in place of tyrosine at amino acid residue number 40 (where 1 is the initiator methionine)) using standard transfection protocols. Transfected cells were incubated with nnAAs at 2 mM for 2-3 days GFP production was analyzed qualitatively by visual inspection under the microscope. The GFP fluorescence was quantified by flow cytometry using an Accuri flow cytometer and the geometric mean of the fluorescent cells determined.
This cell based assay was used to determine whether the different nnAAs were suitable substrates for the pylRS and allowed its translation into a target protein. Cells expressing the PylRS/tRNApyl pair and containing a vector encoding the GFPY40 reporter gene were incubated in the presence of the nnAAs. nnAAs that are readily utilized by the PylRS/tRNApyl pair support the translation of the nnAA into the amber site of GFP and allow read-through of the gene producing full length GFP (fluorescent protein). The fluorescence intensity of the cells depends on the efficiency of nnAA incorporation. Thus, nnAAs that are poorly utilized produce weakly fluorescent or non-fluorescing cells. […] Furthermore, the relative expression levels in each sample was compared to those generated by substrates known to be efficiently utilized by pylRS.

[3] = system: platform cell line; assay: GFPY40 reporter activity of platform cells grown with or without dnnAA (flow cytometry); assay type: cell-based
Procedure: (§1) To do this a platform cell line, selected for high activity of the amber suppression machinery was grown in the presence or absence of dnnAA for several passages and subsequently seeded into 96-well plates at ten cells per well and grown in the presence or absence of dnnAA (Formula VIIB.2). Each plate was incubated for several days and cells harvested, pooled and counted. […] This two fold increase in cell numbers may be due to the protective effects of the dnnAA. To examine the activity of the cells grown under these conditions, 0.5×10^6 cells pooled from each plate were seeded into a 6-well plate and transfected with a GFPY40 reporter construct in the absence of dnnAA and with lys-azide. After 24 hours the fluorescence intensity of the cells in each sample was analysed by flow cytometry. The data were gated to include single cells and plotted to display the intensity of each event (scatter plot, FIG. 16). The number of events falling within the top 10% of the GFP intensity spectrum were determined for each sample (Table 2). […] Cells from both groups were also transfected with a construct encoding wild type GFP. The same analyses were performed on this group.

[4] = system: background amber suppression; assay: Background amber suppression (GFPY40 reporter, pylRS/tRNApyl, dnnAA without nnAA); assay type: cell-based
Procedure: The competitive assay for dnnAA inhibition in the presence of a high affinity substrate identified dnnAAs that compete for binding with to the pylRS and thus are specific inhibitors of the pylRS/tRNA. However, the decoy nnAA is intended to reduce the levels of background amber suppression in the absence of nnAA. To determine if background amber suppression levels could be reduced, we incubated cells containing the GFPY40 reporter construct and the pylRS/tRNApyl pair in medium containing one of the dnnAAs. To do this, HEK293 cells stably expressing pylRS were transiently transfected with a tRNA expression construct and the GFPY40 reporter cassette. After 3 days of incubation, cells were assayed for expression of GFP by flow cytometry and geometric mean fluorescence intensity of the samples determined. We have previously observed that cells containing the full complement of the pylRS/tRNA amber suppression system show detectable expression of the GFP reporter construct that is above what is observed in cells lacking the amber suppression system. […] To identify dnnAAs capable of reducing background amber suppression levels the transfected cells were incubated with each of the dnnAAs at 0.5 mM, 1 mM and 2 mM and GFP levels measured by flow cytometry.
The decrease in background amber suppression dependent GFP expression was dose dependent and improved as the dnnAA concentration increased. […] This feature is an attractive characteristic for platform development as it enables the repression of background amber suppression but the system can be activated upon addition of a strong pylRS substrate such as lys-azide. […] Their efficacy was quantified by the reduction in GFP expression relative to a control sample (not exposed to dnnAA) and the data are summarized in Table 1.

[5] = system: CHO cells stably expressing pylRS and tRNApyl and an IgG directed against her2/neu containing an amber codon; assay: Growth and viability of pylRS/tRNApyl cell line treated with lys azide and dnnAA; assay type: cell-based; conditions: 2 mM dnnAA with 0.5 mM lys-azide
Text: To examine whether the dnnAAs of the invention could function to improve the viability of cells containing pylRS and tRNApyl we monitored the growth and viability of a cell line, stably expressing pylRS and tRNApyl. For this assay CHO cells stably expressing pylRS and tRNApyl and an IgG directed against her2/neu containing an amber codon in the heavy chain, shown to effectively incorporate nnAA into the expressed IgG thus producing an antibody containing a nnAA, were used for this experiment. Despite a high expression level of pylRS/tRNApyl pair, this cell line has very robust cell growth characteristics when grown in medium lacking nnAA. The presence of a highly expressed target containing an amber codon likely has a protective effect on the cells by supplying them with high levels of amber codons that absorb the amber suppression activity and protects the cells from the effects of background amber suppression at essential genes. However, upon addition of the nnAA (lys-azide) to the growth medium, and activation of the amber suppression machinery, a decrease in cell growth rate is observed. […] To determine whether a dnnAA can rescue this effect, cells cultured in serum free medium were grown to a cell density of 0.5×10^6 cells/mL and subsequently treated with 0.5 mM lys azide alone or in combination with 2 Mm dnnAA. Cell viability and cell numbers were monitored daily over seven days. Cells treated with lys azide alone reached a cell density just below 1×10^6 cells/mL on day 3 after nnAA addition and remained at this density for the remainder of the assay (seven days) (FIG. 15A) The lack of growth was not likely due to loss of viability as the culture retained high viability throughout the experiment (˜70% viable cells) (FIG. 15B) Cultures treated with 2 mM Compound of formula VIIB.4, or 2 mM Formula VIIB.1 in combination with 0.5 mM lys-azide supported continued growth of the culture that reached over 1.5×10^6 cells/mL and retained a cell viability of 90%.

[6] = system: platform cell line; assay: Platform cell line grown with or without dnnAA: cell numbers; assay type: cell-based
Procedure: as §1

[7] = molecular target: T2, pylRS (Methanosarcina mazei, UniProt Q8PWY1); assay: In vitro GFPY40 functional assay: dnnAA competition with lys azide in HEK293 cells stably expressing pylRS; assay type: cell-based; conditions: lys azide with 0.5 mM, 1 mM and 2 mM dnnAA
T2 construct: expressed in transfected cells
T2 sequence (Q8PWY1 whole entry): as above
Text: Effective dnnAAs were identified by their ability to compete with a high affinity substrate for pylRS (lys-azide) in an in vitro assay, for their ability to reduce background amber suppression levels observed with a reporter protein, and for their ability to improve the viability and function of cells previously selected for high pylRS/tRNA activity.
To identify analogues that could effectively compete for pylRS binding with lys-azide, dnnAAs were first tested for function in an in vitro functional assay based on the ability of cells expressing WT pylRS and tRNApyl to introduce a nnAA at a target site in the reporter protein GFPY40. This reporter contains an amber codon in its open reading frame that, in the absence of amber suppression, generates a truncated protein that is not fluorescent. In the event of amber suppression, a full length GFP protein is generated that is detectable by fluorescence detection methods. In this assay, HEK293 cells stably expressing pylRS, were transiently transfected with a tRNA expression construct and the GFPY40 reporter cassette. Cells were then incubated with 0.5 mM lys azide in the presence or absence of different concentrations of dnnAA ranging from 0.5 mM to 2 mM. GFP fluorescence levels were then quantified by flow cytometry. For this assay the proportion of fluorescent cells in each condition was determined and plotted. As the dnnAAs are expected to compete with the nnAA (lys-azide) for pylRS/tRNA binding, an effective dnnAA should reduce or prevent the expression of full length GFP (as described above dnnAAs can be delivered by the tRNA to the amber site, but cannot propagate protein synthesis).
A similar in vitro assay was used to gauge the effectiveness of the dnnAAs of Formula VIIB listed in Table 1 where a description of the amino acids tested and a summary of the results are shown For this assay the geometric mean fluorescence intensity of each sample was determined by flow cytometry and plotted. For each dnnAA tested control cells transfected with wild type GFP were measured as a positive control. In addition cells transfected with the reporter GFPY40 and exposed to 0.5 mM lys azide or 2 mM lys azide were used to determine maximal GFP expression levels in the absence of an inhibitor. In each case robust GFP expression levels were observed. To test whether any of the dnnAA could reduce the efficacy of GFP expression, cells were incubated in the presence of 0.5 mM, 1 mM and 2 mM […]. […] Thus, dnnAAs of the present invention can compete with the lys-azide nnAA for binding to the pylRS and interfere with the physiological mechanism of nnAA introduction. Cells transfected with the pylRS/tRNA pair and the GFPY40 reporter construct but not exposed to either lys-azide or a dnnAA were used to determine levels of background amber suppression and used as a negative control. In each case low GFP expression levels were observed.

[8] = system: db/db mice; assay: Fed glucose blood levels in db/db mice; assay type: in vivo, mouse; conditions: 0.25 mg/Kg daily subcutaneously, day 3
Procedure: To assess the potency of the PEGylated FGF21 constructs obese, db/db mice were treated daily with 0.25 mg/Kg FGF21 or 20K PEG-FGF21 and glucose levels measured in fed mice after three treatments using a handheld glucose monitor, (FIG. 7B).
The homozygous db/db mouse (B6.BKS(D)-Leprdb/j, Jackson labs) is a well characterized animal model for diabetes and becomes obese after 3-4 weeks of age. The animals also display elevated plasma insulin, blood sugar, and delayed wound healing. In this study, 7-8 week old, male db/db mice were fed Lab Diet 5053 Rodent Diet 20 ad libitum. Mice were acclimatized for seven days and subsequently administered PEGylated FGF21, unmodified FGF21 and vehicle (PBS) subcutaneously daily for […].
Each mouse was administered 0.25 mg/Kg of PEG-FGF21 or unmodified FGF21 daily for three days. Fed glucose blood levels were determined by tail clip bleeding one hour after compound administration on day 3, and glucose levels measured by a handheld glucose meter (Bayer).

[9] = Tracer (wild type GFP) transfected, sample 6

C=CCOC(=O)NCCCC[C@H](N)C(=O)O [Formula V.3, (2S)-2-amino-6-{[(prop-2-en-1-yloxy)carbonyl]amino}hexanoic acid]
effect on cell viability/growth [1]: cytotstatic effect | Positive GFP [2]: Yes | MFI [2]: 2,250,000 | MFI ([2]; listed as V.3): 2250000

C=CCOC(=O)NCCCCC(=O)O [Formula VIIB.2, 5-{[(prop-2-en-1-yloxy)carbonyl]amino}pentanoic acid]
Top 300 (GM) ([3]; GFPY40 reporter with lys-azide, 24 hours, cells previously grown with decoy): 1142 and 1149 and 1135 | # events in top gate ([3]; GFPY40 reporter, top 10% of GFP intensity, cells previously grown with decoy): 175 and 179 and 171 | # events in top gate [3, 9]: 59 | Top 300 (GM) [3, 9]: 529 | reduction in background amber suppression levels ([4]; dnnAA at 0.5 mM, 1 mM and 2 mM): reduction in the background amber suppression levels | % Reduction at 2 mM Decoy ([4]; reduction in GFP expression relative to control not exposed to dnnAA, 3 days): 57.7% | prevention of cytostatic effects of amber suppression activation [5]: prevent the cytostatic effects | cell density ([5]; seven days): over 3 ×10^6 cells/mL | cell viability ([5]; seven days): over 90% | increase in cell numbers vs cultures without dnnAA [6]: two fold | cell numbers ([6]; 96-well plates, ten cells per well, grown in dnnAA): 3.0 ×10^6 cells/mL and 3.7 ×10^6 cells/mL | reduction of GFP expression relative to samples lacking dnnAA (geometric mean fluorescence intensity) [7]: relative reduction in GFP expression was much lower

B1: PEG-FGF21 (conjugate, UniProt Q9NSA1 29-209, looked up)
Fibroblast growth factor 21: HPIPDSSPLLQFGGQVRQRYLYTDDAQQTEAHLEIREDGTVGGAADQSPESLLQLKALKPGVIQILGVKTSRFLCQRPDGALYGSLHFDPEACSFRELLLEDGYNVYQSEAHGLPLHLPGNKSPHRDPAPRGPARFLPLPGLPPALPEPPGILAPQPPDVGSSDPLSMVGPSQGRSPSYAS
modifications: PEGylated
glucose level maintenance vs placebo [8]: improved glucose level maintenance as compared to placebo controls | potency on fed glucose blood levels [8]: same potency of wild type FGF21
